Results on nine molecules are retold here after patent US11504396B2 (NKMAX Co., Ltd., priority 2016, dated 2022).

Where two headings read alike, the source gives them in different places. The star is where a group is joined. Cbz = O=C(OCc1ccccc1)*; CH2F = FC*

Data set [1] concerns HCT-15 (colon cancer) cells. Put plainly: Cytotoxicity of NK cells after TGF-β receptor inhibitor treatment (HCT-15). Type of data set: cell-based. To be noted: NK cells treated with LY2157299 100 nM for 24 hours, co-cultured 48 hours. The procedure:
(§1) NK cells are treated with LY2157299 (100 nM), a compound inhibiting kinases related to TGF-β receptor signaling, for 24 hours and then co-cultured with SK-4 (stomach cancer) or HCT-15 (colon cancer) cells for 48 hours.

The test system of data set [2] is TGF-β-induced NK cell death. Nature of the data set: NK cell survival after TGF-β treatment (trypan blue). The format is cell-based, human. To be noted: FIG. 1E; LY2157299 100 nM pretreatment 24 hours, then 1 ng/mL TGF-β for two days.
Data set [3] deals with SK-4 (stomach cancer) cells. Nature of the data set: Cytotoxicity of NK cells after TGF-β receptor inhibitor treatment (SK-4). The format is cell-based. The conditions noted are these: NK cells treated with LY2157299 100 nM for 24 hours, co-cultured 48 hours. As to the method:
as §1

The subject of data set [4] is sGITRL-induced NK cell death. Put plainly: NK cell survival after sGITRL treatment (trypan blue). The format is cell-based, human. The conditions noted are these: then 5 ng/mL sGITRL for two days.
For data set [5], the system named is SNU-387 (the liver cancer cell line). Nature of the data set: 2 day cytotoxicity assay of kinase inhibitor pretreated NK cells against SNU-387.
Data set [6] relates to SNU-245 (the biliary tract cancer cell line). Put plainly: 2 day cytotoxicity assay against SNU-245 cells (pretreated or formulated NK cells, or ponatinib alone).
The subject of another data set is human NK cells. To be noted: cited from earlier work; for NK cytotoxicity / NK cytokine production: direct exposure of human NK cells with pharmacological doses, in vitro (Krieg and Ullrich 2013).
The subject of data set [7] is MDA-MB-231 (the breast cancer cell line). The conditions noted are these: FIG. 6B; pretreatment 24 hrs (30, 100 and 300 μM); E:T 0.5:1, 48 hrs.
For data set [8], the system named is AGS (the stomach cancer cell line). The conditions noted are these: FIG. 6A; pretreatment 24 hrs (30, 100 and 300 μM); E:T 0.5:1, 48 hrs.
Data set [9] deals with PC-3 (prostate cancer) cells. Put plainly: Cytotoxicity of NK cells after caspase-8 inhibitor treatment (PC-3). Type of data set: cell-based. To be noted: NK cells treated with Z-IETD-FMK 2 μM for 24 hours, co-cultured 48 hours. The procedure: (§2) NK cells are treated with Z-IETD-FMK (2 μM), an inhibitory peptide against apoptosis-related activity of Caspase-8, for 24 hours and then co-cultured with NCI-H1299 (lung cancer) or PC-3 (prostate cancer) cells for 48 hours.

Data set [10] relates to NCI-H1299 (lung cancer) cells. Nature of the data set: Cytotoxicity of NK cells after caspase-8 inhibitor treatment (NCI-H1299). Type of data set: cell-based. The conditions noted are these: NK cells treated with Z-IETD-FMK 2 μM for 24 hours, co-cultured 48 hours. The procedure: as §2
In data set [11] the test system is Fas-L-induced NK cell death. Nature of the data set: NK cell survival after Fas-L treatment (trypan blue). The conditions noted are these: FIG. 1D; Z-IETD-FMK 2 μM pretreatment 24 hours, then 5 ng/mL Fas-L for two days. The format is cell-based, human.
Setting [12] is: FIG. 7B, pretreatment 24 hrs, E:T 0.5:1, 48 hrs.
Where [13] appears, read: FIG. 7A, pretreatment 24 hrs, E:T 0.5:1, 48 hrs.
Setting [14] is: resting and IL-2-activated NK cells (Krusch et al. 2009).

Take `Cc1cccc(-c2nn3c(c2-c2ccnc4ccc(C(N)=O)cc24)CCC3)n1` [LY2157299]: the “Cytotoxicity of NK Cells to HCT-15 Cells” value was 86% in data set [1] (E:T = 0.1:1, W/ IL-2); 68% in [1] (E:T = 0.1:1, W/O IL-2); 98% in [1] (E:T = 05:1, W/ IL-2); 82% in data set [1] (E:T = 05:1, W/O IL-2). Moreover, the “cell death induced by TGF-β (NK cell survival rate)” value in [2] is “suppressed cell death”. The “Cytotoxicity of NK Cells to SK-4 Cells” value in [3] (E:T = 0.1:1, With IL-2) is on record as 39%; in [3] (E:T = 0.1:1, Without IL-2), 27%; in data set [3] (E:T = 05:1, With IL-2), 59%; in data set [3] (E:T = 05:1, Without IL-2), 35%. In addition, the “cell death induced by sGITRL (NK cell survival rate)” value in data set [4] (FIG. 1E, LY2157299 100 nM pretreatment 24 hours) was “suppressed cell death”.
As to `COc1cc(Nc2c(C#N)cnc3cc(OCCCN4CCN(C)CC4)c(OC)cc23)c(Cl)cc1Cl` [bosutinib], the “anti-cancer cytotoxicity of kinase inhibitor pretreated NK cells against SNU-387 vs untreated NK cells” value in data set [5] (setting [12]) is listed as “did not increase”. In addition, in data set [6] (setting [13]), the “anti-cancer cytotoxicity of kinase inhibitor pretreated NK cells against SNU-245 vs untreated NK cells” value is on record as “did not increase”.
Consider `Cc1nc(Nc2ncc(C(=O)Nc3c(C)cccc3Cl)s2)cc(N2CCN(CCO)CC2)n1` [dasatinib], for which, in the data set on human NK cells, the NK cytotoxicity entry is given as “abrogated cytotoxicity”. Also, the “anti-cancer cytotoxicity of kinase inhibitor pretreated NK cells against SNU-387 vs untreated NK cells” value in data set [5] (setting [12]) is on record as “did not increase”. Besides, the “anti-cancer cytotoxicity of kinase inhibitor pretreated NK cells against SNU-245 vs untreated NK cells” value in [6] (setting [13]) is “slightly increased anticancer activity”. Further, in data set [7], the “anti-cancer cytotoxicity of kinase inhibitor pretreated NK cells against MDA-MB-231 vs untreated NK cells” value is reported as “did not show any differences”. Also, the “anti-cancer cytotoxicity of kinase inhibitor pretreated NK cells against AGS vs untreated NK cells” value in data set [8] is listed as “did not show any differences”.
Turning to `Cc1ccc(NC(=O)c2ccc(CN3CCN(C)CC3)cc2)cc1Nc1nccc(-c2cccnc2)n1` [imatinib], in the data set on human NK cells, the NK cytokine production entry is reported as “no impact” and the NK cytotoxicity result is “no impact”. The “anti-cancer cytotoxicity of kinase inhibitor pretreated NK cells against SNU-387 vs untreated NK cells” value in data set [5] (setting [12]) is reported as “did not increase”. Besides, the “anti-cancer cytotoxicity of kinase inhibitor pretreated NK cells against SNU-245 vs untreated NK cells” value in [6] (setting [13]) is on record as “did not increase”. The “anti-cancer cytotoxicity of kinase inhibitor pretreated NK cells against MDA-MB-231 vs untreated NK cells” value in data set [7] is listed as “did not show any differences”. Besides, the “anti-cancer cytotoxicity of kinase inhibitor pretreated NK cells against AGS vs untreated NK cells” value in data set [8] is “did not show any differences”.
Take `Cc1cn(-c2cc(NC(=O)c3ccc(C)c(Nc4nccc(-c5cccnc5)n4)c3)cc(C(F)(F)F)c2)cn1` [nilotinib]: the NK cytokine production entry in the data set with human NK cells is “negatively influenced”. Besides, the “anti-cancer cytotoxicity of kinase inhibitor pretreated NK cells against SNU-387 vs untreated NK cells” value in data set [5] (setting [12]) is reported as “did not increase”. Further, the “anti-cancer cytotoxicity of kinase inhibitor pretreated NK cells against SNU-245 vs untreated NK cells” value in data set [6] (setting [13]) is “did not increase”. Moreover, the “anti-cancer cytotoxicity of kinase inhibitor pretreated NK cells against MDA-MB-231 vs untreated NK cells” value in data set [7] is given as “did not show any differences”. In addition, in data set [8], the “anti-cancer cytotoxicity of kinase inhibitor pretreated NK cells against AGS vs untreated NK cells” value is listed as “did not show any differences”.
Consider `CNC(=O)c1cc(Oc2ccc(NC(=O)Nc3ccc(Cl)c(C(F)(F)F)c3)cc2)ccn1` [sorafenib], for which, in the data set with human NK cells (setting [14]), the “IFN-γ production of NK cells in response to tumor targets” value is listed as “concentration dependently inhibited” and the “cytotoxicity of NK cells in response to tumor targets” value is reported as “concentration dependently inhibited”. In addition, the “anti-cancer cytotoxicity of kinase inhibitor pretreated NK cells against SNU-387 vs untreated NK cells” value in data set [5] (setting [12]) was “did not increase”. For the same molecule, the “anti-cancer cytotoxicity of kinase inhibitor pretreated NK cells against SNU-245 vs untreated NK cells” value in data set [6] (setting [13]) is recorded as “did not increase”. Further, the “anti-cancer cytotoxicity of kinase inhibitor pretreated NK cells against MDA-MB-231 vs untreated NK cells” value in data set [7] is recorded as “did not show any differences”. Besides, the “anti-cancer cytotoxicity of kinase inhibitor pretreated NK cells against AGS vs untreated NK cells” value in data set [8] was “did not show any differences”.
Regarding `CCN(CC)CCNC(=O)c1c(C)[nH]c(/C=C2\C(=O)Nc3ccc(F)cc32)c1C` [sunitinib], the “cytotoxicity of NK cells in response to tumor targets” value with human NK cells is “concentration dependently inhibited”. For the same molecule, the “anti-cancer cytotoxicity of kinase inhibitor pretreated NK cells against SNU-387 vs untreated NK cells” value in data set [5] was “did not increase”. For the same molecule, the “anti-cancer cytotoxicity of kinase inhibitor pretreated NK cells against SNU-245 vs untreated NK cells” value in data set [6] is “did not increase”. Besides, in data set [7], the “anti-cancer cytotoxicity of kinase inhibitor pretreated NK cells against MDA-MB-231 vs untreated NK cells” value is reported as “did not show any differences”. For the same molecule, the “anti-cancer cytotoxicity of kinase inhibitor pretreated NK cells against AGS vs untreated NK cells” value in data set [8] is “did not show any differences”.
On to `COc1cc2c(Nc3ccc(Br)cc3F)ncnc2cc1OCC1CCN(C)CC1` [vandetanib], for which the “anti-cancer cytotoxicity of kinase inhibitor pretreated NK cells against SNU-387 vs untreated NK cells” value in [5] (setting [12]) is recorded as “did not increase”. Besides, the “anti-cancer cytotoxicity of kinase inhibitor pretreated NK cells against SNU-245 vs untreated NK cells” value in data set [6] (setting [13]) is reported as “did not increase”.
Turning to Cbz-IETD-CH2F, the “Cytotoxicity of NK Cells to PC-3 Cells” value in data set [9] (E:T = 0.1:1, W/ IL-2) is 76%; in [9] (E:T = 0.1:1, W/O IL-2) it was 48%; in data set [9] (E:T = 0.5:1, W/ IL-2) it was 96%; in data set [9] (E:T = 0.5:1, W/O IL-2) it was 78%. The “Cytotoxicity of NK Cells to NCI-H1299 Cells” value in [10] (E:T = 0.1:1, With IL-2) was 33%; in data set [10] (E:T = 0.1:1, Without IL-2), 25%; in data set [10] (E:T = 0.5:1, With IL-2), 58%; in data set [10] (E:T = 0.5:1, Without IL-2), 34%. The “cell death induced by Fas-L (NK cell survival rate)” value in [11] is “suppressed cell death”. In addition, the “cell death induced by sGITRL (NK cell survival rate)” value in data set [4] (FIG. 1D, Z-IETD-FMK 2 μM pretreatment 24 hours) is given as “suppressed cell death”.
